Measured values from article PMC7536268, “Increased Antimicrobial Activity of Colistin in Combination With Gamithromycin Against Pasteurella multocida in a Neutropenic Murine Lung Infection Model” (Frontiers in Microbiology, 2020).
Like-named read-outs stand apart in the source and are kept apart here. Where a SMILES comes first, the peptide text is derived from it. Bridges are numbered along the chain shown (N, C = ends). [ ]: non-standard residue; d: D form. The star is where a group is joined. X1 = CC[C@H](C)CCCCC(=O)*; Dab = NCC[C@H](N)C(=O)O

Key:
[1] = tested on: Pasteurella multocida (D18, T5, and WJ11); test: In vitro time-kill assays; assay type: cell-based; details: colistin alone 0.25-1 mg/L, 24 h, all strains (D18, T5, WJ11), inoculum ~5 × 10^6 CFU/mL
Protocol: In vitro time-kill assays were used to evaluate the effects of colistin alone and in combination with gamithromycin over 24 h. Three isolates of P. multocida (D18, T5, and WJ11) were tested. A P. multocida inoculum at ∼5 × 10^6 CFU/mL was treated with colistin alone at 0.25, 0.5, and 1 mg/L; gamithromycin alone at 0.125, 0.25, and 0.5 mg/L; and with colistin in combination with gamithromycin. At 0, 1, 2, 4, 6, 8, 12, and 24 h after incubation, 100-μL samples were taken from each tube for colony counting. A growth control without drug administration was included in all tests.

[2] = set-up: method as in Soon-Ee et al., 2015; details: ref Soon-Ee et al., 2015; cited from earlier work
[3] = tested on: Pasteurella multocida strains; test: MIC by broth microdilution (CLSI); assay type: cell-based; details: drug alone, broth microdilution, Mueller-Hinton broth, triplicate
Protocol: The susceptibility of the selected P. multocida isolates and the quality control isolate (ATCC 25922) to colistin, gamithromycin, cefquinome, enrofloxacin, tilmicosin, tylosin tartrate, and florfenicol alone was determined using the microdilution method in broth (conducted in triplicate) according to the guiding principles of the CLSI. Based on the action mechanism of each drug, the antimicrobial activity of colistin or cefquinome (drug A) in combination with gamithromycin, enrofloxacin, tilmicosin, tylosin tartrate, or florfenicol (drug B) was determined with the checkerboard method, according to the minimal inhibitory concentration (MIC) of each drug. Briefly, 50 μL of MH II broth was added to each well, and 50 μL of the indicated concentration of colistin or cefquinome was added into the first well of each line. This was followed by multiproportion dilution. Next, 50-μL samples of different concentrations of gamithromycin or the other drugs mentioned above were added to the dilution medium, and a 100 μL inoculum with a cell density of ∼1 × 10^6 colony-forming units (CFU)/mL was added to each well. The plates were then incubated at 37°C for 24 h. According to the EUCAST definitive document E.Def 1.2 ([Mccullough, 2010]), the fractional inhibitory concentration (FIC) index for combined administrations was defined as the sum of the FIC of drug A and the FIC of drug B, where FIC is the MIC of the drug combined with other drugs, divided by the MIC of the drug alone.

[4] = In vitro plasma protein binding, equilibrium dialysis; assay type: in vitro ADME; details: 72 h at 4°C
Protocol: In vitro plasma protein-binding experiments for gamithromycin were conducted by adopting an equilibrium dialysis method for 72 h at 4°C. The corresponding unbound plasma PK parameters were obtained and used for the integration of PK and PD data.

[5] = tested on: Pasteurella multocida strains (D18, T5, and WJ11); test: PK/PD relationship analysis (inhibitory Emax model, plasma AUC/MIC, target doses); assay type: in vivo; details: gamithromycin monotherapy; for Gamithromycin AUC/MIC required to reach 1-log10 kill / Gamithromycin AUC/MIC required to reach stasis: plasma AUC
Protocol: The relationship between the in vivo antimicrobial activity of gamithromycin alone or in combination with colistin and the ratio of plasma PK parameters to the MIC of gamithromycin was assessed. An inhibitory effect Emax model from the Phoenix WinNonlin identification module was used for analysis based on the equation: E = Emax − (Emax−E0) × Ce/(Ce + EC50), where E is the antimicrobial effect (i.e., the change in bacterial burden in CFU per lung), Emax is the change in log10 CFU/lung for control groups, […], Ce is the PK/PD index under analysis, and EC50 is the Ce value at 50% of E0.
Integration of PK and PD data is important for clinical drug administration ([Toutain et al., 2002]). Herein, PK values in plasma were used to calculate the PK/PD index, which was integrated with changes in bacteria log10 CFU/lung. Antimicrobials that achieve significant PAE values are generally described as concentration-dependent ([Jacobs, 2004]).

P. multocida = tested on: P. multocida; set-up: method as in Benoit et al., 2011; details: P. multocida with erm(E); ref Benoit et al., 2011; cited from earlier work
Excerpt: Bovine respiratory disease (BRD) associated with Mannheimia haemolytica, P. multocida, and Histophilus somni is one of the most economically important diseases that occur in feedlots, and the global losses are estimated at over $3 billion per year ([Watts and Sweeney, 2010]).

[6] = cattle, SC 6 mg/kg; ref Steeve et al., 2011; cited from earlier work
[7] = swine, SC 6 mg/kg; ref Wyns et al., 2014; cited from earlier work
[8] = strain D18, lungs of mice, n = 4
[9] = strain T5, lungs of mice, n = 4
[10] = strain WJ11, lungs of mice, n = 4

CC[C@H](C)CCCCC(=O)N[C@@H](CCN)C(=O)N[C@H](C(=O)N[C@@H](CCN)C(=O)N[C@H]1CCNC(=O)[C@H]([C@@H](C)O)NC(=O)[C@H](CCN)NC(=O)[C@H](CCN)NC(=O)[C@H](CC(C)C)NC(=O)[C@@H](CC(C)C)NC(=O)[C@H](CCN)NC1=O)[C@@H](C)O [Colistin] (X1-[Dab]T[Dab][Dab][Dab][dL]L[Dab][Dab]T; lactam 4-C)
time-kill outcome [1]: incapable of controlling bacterial growth
unbound extent in plasma [2]: 8.4%

CCCN1C[C@H](C)[C@@H](O)[C@](C)(O)[C@@H](CC)OC(=O)[C@H](C)[C@@H](O[C@H]2C[C@@](C)(OC)[C@@H](O)[C@H](C)O2)[C@H](C)[C@@H](O[C@@H]2O[C@H](C)C[C@H](N(C)C)[C@H]2O)[C@](C)(O)C[C@H]1C [Gamithromycin]
MIC ([3]; strain CVCC 444): 0.5 µg/mL
MIC ([3]; strain D18): 0.5 µg/mL
MIC ([3]; strain PmP2 (pig)): 0.5 µg/mL
MIC ([3]; strain PmP17 (pig)): 0.5 µg/mL
MIC ([3]; strain T5): 0.5 µg/mL
MIC ([3]; strain WJ11): 0.5 µg/mL
MIC ([3]; strain WN71): 0.5 µg/mL
MIC ([3]; strain WW81): 0.5 µg/mL
MIC ([3]; strain XX12): 0.5 µg/mL
plasma protein binding extent [4]: 13.83%
Gamithromycin dose required to reach 1-log10 kill ([5]; Mean ± SD of D18, T5, WJ11, SD): 67.11 ± 6.01 mg/kg
Gamithromycin dose required to reach stasis ([5]; Mean ± SD of D18, T5, WJ11, SD): 18.43 ± 3.10 mg/kg
Gamithromycin dose required to reach 1-log10 kill [5, 8]: 65.32 mg/kg
Gamithromycin dose required to reach stasis [5, 8]: 17.99 mg/kg
Gamithromycin AUC/MIC required to reach 1-log10 kill ([5]; strain D18, n = 4): 36.74
Gamithromycin AUC/MIC required to reach stasis ([5]; strain D18, n = 4): 10.33
Gamithromycin dose required to reach 1-log10 kill [5, 9]: 73.80 mg/kg
Gamithromycin dose required to reach stasis [5, 9]: 21.73 mg/kg
Gamithromycin AUC/MIC required to reach 1-log10 kill ([5]; strain T5, n = 4): 41.51
Gamithromycin AUC/MIC required to reach stasis ([5]; strain T5, n = 4): 12.47
Gamithromycin dose required to reach 1-log10 kill [5, 10]: 62.19 mg/kg
Gamithromycin dose required to reach stasis [5, 10]: 15.58 mg/kg
Gamithromycin AUC/MIC required to reach 1-log10 kill ([5]; strain WJ11, n = 4): 34.98
Gamithromycin AUC/MIC required to reach stasis ([5]; strain WJ11, n = 4): 8.11
MIC (P. multocida): ≥ 512 µg/mL
AUClast [6]: 7.82 mg⋅h/L
AUClast [7]: 3.48 mg⋅h/L
